# Measurements published in patent US4151268A, “Barbituric acid antigens and antibodies specific therefor” (Hoffmann-La Roche Inc., priority 1977, dated 1979).
# Legend:
# [1] = tested on: barbituric acid specific antibody (antisera obtained in Example 2); experiment: Comparison runs: recognition of other barbituric acid derivatives and related compounds by the antibody; details: at similar concentrations
# [2] = tested on: barbituric acid specific antibody (antisera obtained in Example 2); experiment: Radioimmunoassay: competitive inhibition of binding of [C14] pentobarbital to antiserum (ammonium sulfate precipitation); details: 4° C., overnight
smiles,measurement,setting,value
CCC1(c2ccccc2)C(=O)NC(=O)NC1=O [phenobarbital],recognition / binding by the antibody,[1],capable of recognizing
CN1C(=O)NC(=O)C(C)(C2=CCCCC2)C1=O (centres unmarked) [hexobarbital],recognition / binding by the antibody,[1],failed to bind
CCCC(C)C1(CC)C(=O)NC(=O)NC1=O (centres unmarked) [pentobarbital],recognition / binding by the antibody,[1],capable of recognizing
same,Percent inhibition of binding of pentobarbital-C^14,[2]; 1 nanogram non-radioactive pentobarbital added,10%
same,Percent inhibition of binding of pentobarbital-C^14,"[2]; 5 nanograms non-radioactive pentobarbital added, sample volume 10 μl",20%
same,Percent inhibition of binding of pentobarbital-C^14,[2]; 10 nanograms non-radioactive pentobarbital added,28%
same,Percent inhibition of binding of pentobarbital-C^14,[2]; 20 nanograms non-radioactive pentobarbital added,43%
same,Percent inhibition of binding of pentobarbital-C^14,[2]; 30 nanograms non-radioactive pentobarbital added,52%
same,Percent inhibition of binding of pentobarbital-C^14,[2]; 40 nanograms non-radioactive pentobarbital added,63%
CCC1(CC)C(=O)NC(=O)NC1=O [barbital],recognition / binding by the antibody,[1],capable of recognizing
CCCC(C)C1(CC)C(=O)NC(=S)NC1=O (centres unmarked) [thiopental],recognition / binding by the antibody,[1],failed to bind
